Results on three compounds are retold here after BindingDB's records for doi:10.1021/jm970059p (University of Illinois At Chicago, 1998).

What is called IC50 is the point on the concentration scale where inhibition reaches its midpoint. A low value points to greater potency in that assay.

This experiment is described as follows: Inhibition of [3H]-TCP binding to PCP receptor obtained from tissue homogenate preparation of fresh whole rat brain minus cerebellum.
`c1ccc2c(c1)C1CCCCC21N1CCCCC1` (stereo not drawn) [1-(1,3,4,8b-Tetrahydro-2H-biphenylen-4a-yl)-piperidine] gave an IC50 of 4.27 µM.

As for `c1ccc2c(c1)C1CCC2(N2CCCCC2)C1` (stereo not drawn) [1-(3,4-Dihydro-2H-1,4-methano-naphthalen-1-yl)-piperidine], the IC50 was 107 µM.

In the case of `c1ccc2c(c1)C1CCC2(N2CCCCC2)CC1` [1-Tricyclo[6.2.2.0*2,7*]dodeca-2(7),3,5-trien-1-yl-piperidine], the IC50 turned out to be 118 µM.
